The record followed here is US9340590B2 (priority 2011, dated 2016).

For data set [1], the target named is T1, hNav1.3 (Homo sapiens, UniProt Q9NY46). Nature of the data set: cell-based. The conditions noted are these: IonWorks Quattro, read-out: IWQ Use Nav1.3.
In data set [2] the test system is formalin pain model in male CD-1 mice. To be noted: male, CD-1, mouse, in vivo, sc, 5 mg/kg, […].
In data set [3] the test system is locomotor activity in male CD-1 mice. The conditions noted are these: 5 mg/kg s.c.
The target of a further data set is hNav1.5 (Homo sapiens, UniProt Q14524). In words: cell-based.
For data set [4] the following is noted: mouse plasma, 37° C.
Data set [5] is described as follows: in vitro. To be noted: human, plasma.
The target in data set [6] is T1, hNav1.3. In words: cell-based. Format: cell-based. The conditions noted are these: Nav1.3 Use IC50.
Data set [7] is described as follows: in vitro. The conditions noted are these: mouse, plasma.
Data set [8] deals with T2, hNav1.7 (Homo sapiens, UniProt Q15858). In words: cell-based. The conditions noted are these: Nav1.7 Use IC50.
The conditions of data set [9]: human plasma, 37° C.
In data set [10] the target is T2, hNav1.7. Nature of the data set: cell-based. The conditions noted are these: IonWorks Quattro, Use; read-out: IWQ Use Nav1.7. Format: cell-based. In general terms: In patch-clamp work, channel activity is measured electrically.
Another data set in a line: in vivo. To be noted: male, CD-1, mouse, sc, 5 mg/kg, terminal exposure (peptide plasma concentration at 2 h post peptide injection), later studies, 5 mg/kg s.c.
Where [11] appears, read: clamped to −110 mV, depolarized to −10 mV, 5 min after compound, n=2.
Where [12] appears, read: incubation time 0 hr (normalisation point).

Like-named read-outs stand apart in the source and are kept apart here. Positions of bridges follow the written chain, without caps; N, C: chain ends. Residues, ends and D or L forms follow the SMILES beside them.

T2 sequence (Q15858 whole entry, looked up): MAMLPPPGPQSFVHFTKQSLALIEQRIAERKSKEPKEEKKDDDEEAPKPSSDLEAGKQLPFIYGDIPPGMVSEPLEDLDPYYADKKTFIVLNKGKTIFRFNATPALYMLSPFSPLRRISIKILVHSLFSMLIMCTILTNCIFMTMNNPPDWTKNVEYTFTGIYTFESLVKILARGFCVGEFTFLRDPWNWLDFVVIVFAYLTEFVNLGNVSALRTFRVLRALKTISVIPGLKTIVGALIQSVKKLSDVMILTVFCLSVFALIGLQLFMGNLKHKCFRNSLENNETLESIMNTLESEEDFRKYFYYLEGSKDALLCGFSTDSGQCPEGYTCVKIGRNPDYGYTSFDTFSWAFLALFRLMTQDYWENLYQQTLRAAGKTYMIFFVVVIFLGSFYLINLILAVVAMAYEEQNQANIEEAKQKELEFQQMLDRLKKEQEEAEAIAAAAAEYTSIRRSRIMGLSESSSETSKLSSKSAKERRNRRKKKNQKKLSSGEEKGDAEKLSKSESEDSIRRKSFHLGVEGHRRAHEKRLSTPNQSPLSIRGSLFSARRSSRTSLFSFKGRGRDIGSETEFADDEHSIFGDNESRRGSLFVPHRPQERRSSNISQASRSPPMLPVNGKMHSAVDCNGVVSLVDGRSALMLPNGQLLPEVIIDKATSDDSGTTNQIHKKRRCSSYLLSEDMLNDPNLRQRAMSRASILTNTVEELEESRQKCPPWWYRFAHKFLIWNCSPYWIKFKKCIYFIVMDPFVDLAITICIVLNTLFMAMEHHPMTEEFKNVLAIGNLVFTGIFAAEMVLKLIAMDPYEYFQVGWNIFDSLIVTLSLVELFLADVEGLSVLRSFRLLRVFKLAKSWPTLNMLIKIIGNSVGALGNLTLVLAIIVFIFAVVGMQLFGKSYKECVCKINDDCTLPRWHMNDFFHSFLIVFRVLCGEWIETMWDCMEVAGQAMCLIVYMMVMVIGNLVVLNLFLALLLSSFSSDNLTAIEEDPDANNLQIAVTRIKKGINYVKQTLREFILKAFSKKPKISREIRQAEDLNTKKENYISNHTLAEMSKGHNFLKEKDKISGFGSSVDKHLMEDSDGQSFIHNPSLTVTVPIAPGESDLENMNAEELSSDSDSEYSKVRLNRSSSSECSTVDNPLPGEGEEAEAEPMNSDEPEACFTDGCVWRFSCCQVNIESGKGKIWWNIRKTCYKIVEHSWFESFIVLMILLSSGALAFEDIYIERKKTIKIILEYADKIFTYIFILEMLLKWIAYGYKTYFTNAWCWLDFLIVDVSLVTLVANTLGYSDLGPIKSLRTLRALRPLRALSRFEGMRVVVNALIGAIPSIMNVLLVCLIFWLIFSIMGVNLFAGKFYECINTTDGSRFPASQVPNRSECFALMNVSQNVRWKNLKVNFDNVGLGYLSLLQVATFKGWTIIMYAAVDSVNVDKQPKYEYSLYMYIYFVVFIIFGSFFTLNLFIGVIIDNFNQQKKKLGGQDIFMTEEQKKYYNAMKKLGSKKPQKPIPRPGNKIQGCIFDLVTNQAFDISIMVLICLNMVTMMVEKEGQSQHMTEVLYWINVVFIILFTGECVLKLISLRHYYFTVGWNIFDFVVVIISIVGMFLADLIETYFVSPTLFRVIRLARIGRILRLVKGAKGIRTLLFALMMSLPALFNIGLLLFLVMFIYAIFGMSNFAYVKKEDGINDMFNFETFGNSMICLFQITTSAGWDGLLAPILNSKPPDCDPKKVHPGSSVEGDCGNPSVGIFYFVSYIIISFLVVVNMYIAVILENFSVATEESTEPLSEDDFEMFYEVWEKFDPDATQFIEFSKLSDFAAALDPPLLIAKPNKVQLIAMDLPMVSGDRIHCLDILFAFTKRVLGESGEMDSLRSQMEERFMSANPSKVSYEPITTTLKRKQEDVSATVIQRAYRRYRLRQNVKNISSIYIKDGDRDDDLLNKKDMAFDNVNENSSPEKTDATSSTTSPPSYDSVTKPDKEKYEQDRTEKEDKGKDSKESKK
T1 sequence (Q9NY46 whole entry, looked up): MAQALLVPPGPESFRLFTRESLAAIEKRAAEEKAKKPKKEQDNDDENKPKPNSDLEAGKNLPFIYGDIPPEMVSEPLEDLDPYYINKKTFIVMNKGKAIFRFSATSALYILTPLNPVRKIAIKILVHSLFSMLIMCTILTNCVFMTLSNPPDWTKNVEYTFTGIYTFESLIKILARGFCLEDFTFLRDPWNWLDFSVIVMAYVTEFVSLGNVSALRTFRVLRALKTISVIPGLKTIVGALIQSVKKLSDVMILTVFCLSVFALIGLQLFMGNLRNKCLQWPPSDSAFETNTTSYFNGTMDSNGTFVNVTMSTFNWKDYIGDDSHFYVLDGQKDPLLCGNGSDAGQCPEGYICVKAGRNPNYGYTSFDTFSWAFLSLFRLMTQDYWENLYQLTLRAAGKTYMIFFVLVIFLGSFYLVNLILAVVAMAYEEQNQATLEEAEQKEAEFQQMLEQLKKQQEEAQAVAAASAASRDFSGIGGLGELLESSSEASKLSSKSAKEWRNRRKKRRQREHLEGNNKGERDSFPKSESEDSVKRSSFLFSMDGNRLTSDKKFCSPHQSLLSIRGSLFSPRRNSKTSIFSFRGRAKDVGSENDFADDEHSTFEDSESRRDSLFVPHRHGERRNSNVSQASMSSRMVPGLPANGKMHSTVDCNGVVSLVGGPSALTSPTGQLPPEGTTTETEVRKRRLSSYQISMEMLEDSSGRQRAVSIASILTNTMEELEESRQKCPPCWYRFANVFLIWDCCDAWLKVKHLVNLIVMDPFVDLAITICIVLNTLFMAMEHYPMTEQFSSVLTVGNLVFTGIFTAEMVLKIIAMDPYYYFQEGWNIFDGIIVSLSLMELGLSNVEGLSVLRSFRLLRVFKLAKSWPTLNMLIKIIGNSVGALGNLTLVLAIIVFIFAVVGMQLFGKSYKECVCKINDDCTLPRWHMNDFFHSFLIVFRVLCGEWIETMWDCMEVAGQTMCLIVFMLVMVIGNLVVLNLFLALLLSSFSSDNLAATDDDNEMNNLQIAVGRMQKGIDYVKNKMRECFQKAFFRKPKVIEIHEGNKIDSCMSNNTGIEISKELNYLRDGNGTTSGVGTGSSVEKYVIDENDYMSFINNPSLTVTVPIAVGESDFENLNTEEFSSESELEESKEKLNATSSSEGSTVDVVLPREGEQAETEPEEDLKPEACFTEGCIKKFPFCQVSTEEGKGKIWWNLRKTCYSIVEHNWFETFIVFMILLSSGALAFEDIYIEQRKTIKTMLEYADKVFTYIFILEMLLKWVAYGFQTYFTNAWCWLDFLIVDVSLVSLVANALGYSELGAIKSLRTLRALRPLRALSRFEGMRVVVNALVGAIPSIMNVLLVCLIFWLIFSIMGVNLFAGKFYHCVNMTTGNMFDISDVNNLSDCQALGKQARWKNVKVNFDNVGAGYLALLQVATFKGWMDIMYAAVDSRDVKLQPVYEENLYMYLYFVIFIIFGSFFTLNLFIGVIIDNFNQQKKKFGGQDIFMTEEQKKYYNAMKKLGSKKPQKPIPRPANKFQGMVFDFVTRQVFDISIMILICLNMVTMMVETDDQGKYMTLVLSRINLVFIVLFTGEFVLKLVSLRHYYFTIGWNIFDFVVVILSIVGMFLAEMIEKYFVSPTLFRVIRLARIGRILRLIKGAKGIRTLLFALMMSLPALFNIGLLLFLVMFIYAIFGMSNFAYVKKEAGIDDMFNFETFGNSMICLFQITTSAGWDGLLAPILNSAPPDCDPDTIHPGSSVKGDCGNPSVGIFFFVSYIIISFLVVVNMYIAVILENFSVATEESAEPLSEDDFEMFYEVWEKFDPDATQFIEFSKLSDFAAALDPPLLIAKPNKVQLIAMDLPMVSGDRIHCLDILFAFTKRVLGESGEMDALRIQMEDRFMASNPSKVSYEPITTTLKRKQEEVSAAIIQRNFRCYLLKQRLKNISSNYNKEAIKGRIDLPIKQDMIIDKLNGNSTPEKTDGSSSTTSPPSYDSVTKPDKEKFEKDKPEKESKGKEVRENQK

Regarding `CC[C@H](C)[C@@H]1NC(=O)[C@@H]2CSSC[C@@H]3NC(=O)[C@H](C(C)C)NC(=O)[C@H](CC(C)C)NC(=O)[C@H](CC(N)=O)NC(=O)[C@@H]4CCCN4C(=O)[C@H](CCCNC(=N)N)NC(=O)[C@H](CSSC[C@H](NC(=O)[C@@H](N)CC(=O)O)C(=O)N[C@@H](CC(C)C)C(=O)NCC(=O)N[C@@H](Cc4ccccc4)C(=O)N[C@@H](CCSC)C(=O)N[C@@H](CCCNC(=N)N)C(=O)N[C@@H](CCCCN)C(=O)N2)NC(=O)[C@H](CSSC[C@@H](C(=O)N[C@@H](CCCCN)C(=O)N[C@@H](Cc2ccc(O)cc2)C(=O)N[C@H](C(=O)N[C@@H](Cc2ccccc2)C(N)=O)C(C)C)NC(=O)[C@H](CCC(=O)O)NC(=O)[C@H](CCCCN)NC(=O)[C@H](Cc2cnc[nH]2)NC(=O)[C@H]([C@@H](C)O)NC(=O)[C@H](CCCNC(=N)N)NC(=O)[C@H](CO)NC3=O)NC(=O)[C@H](CCCCN)NC(=O)[C@H](CC(=O)O)NC(=O)[C@H](CC(N)=O)NC(=O)[C@H](CC(=O)O)NC(=O)[C@@H]2CCCN2C1=O` [SEQ ID NO: 30, [Glu29]GpTx-1(1-34)] (H-DCLGFMRKCIPDNDKCCRPNLVCSRTHKECKYVF-NH2; disulfide 2-17, 9-23, 16-30), the IC50 at hNav1.3 [1] (Table 24, use, […]) is 16100 nM. In addition, the “terminal exposure (peptide plasma concentration at 45 min post formalin injection)” value in data set [2] worked out at 0.502 ± 0.271 µM. The “locomotor activity in the open field analysis” value in data set [3] is reported as “no significant effect”. Also, the “terminal exposure (peptide plasma concentration at 2 h post peptide injection)” value in data set [3] (later studies) worked out at 0.771 ± 0.272 µM.
As for `CC[C@H](C)[C@@H]1NC(=O)[C@@H]2CSSC[C@@H]3NC(=O)[C@H](C(C)C)NC(=O)[C@H](CC(C)C)NC(=O)[C@H](CC(N)=O)NC(=O)[C@@H]4CCCN4C(=O)[C@H](CCCNC(=N)N)NC(=O)[C@H](CSSC[C@H](N)C(=O)N[C@@H](CC(C)C)C(=O)NCC(=O)N[C@@H](Cc4ccccc4)C(=O)N[C@@H](CCSC)C(=O)N[C@@H](CCCNC(=N)N)C(=O)N[C@@H](CCCCN)C(=O)N2)NC(=O)[C@H](CSSC[C@@H](C(=O)N[C@@H](CCCCN)C(=O)N[C@@H](Cc2ccc(O)cc2)C(=O)N[C@H](C(=O)N[C@@H](Cc2ccccc2)C(N)=O)C(C)C)NC(=O)[C@H](Cc2c[nH]c4ccccc24)NC(=O)[C@H](CCCCN)NC(=O)[C@H](Cc2cnc[nH]2)NC(=O)[C@H]([C@@H](C)O)NC(=O)[C@H](CCCNC(=N)N)NC(=O)[C@H](CO)NC3=O)NC(=O)[C@H](CCCCN)NC(=O)[C@H](CC(=O)O)NC(=O)[C@H](CC(N)=O)NC(=O)[C@H](CC(=O)O)NC(=O)[C@@H]2CCCN2C1=O` [SEQ ID NO: 108] (H-CLGFMRKCIPDNDKCCRPNLVCSRTHKWCKYVF-NH2; disulfide 1-16, 8-22, 15-29), the IC50 at hNav1.3 [1] (setting [11]) came out at 50 nM; at hNav1.5 (IonWorks Quattro, clamped to −110 mV, depolarized to −10 mV, 5 min after compound, n=2, read-out: IWQ Use Nav1.5), 8.22 µM; against hNav1.3 [6], 15 nM; on hNav1.7 [8], 7 nM. The “% peptide remaining” value in [4] (setting [12]) and in data set [9] (setting [12]) was 100% throughout. For the same compound, the share remaining at 2 h was 107% in “in vitro [5]” and 100% in “in vitro [7]”. In addition, the share remaining at 4 h in “in vitro [5]” turned out to be 92%; in “in vitro [7]”, 95%. Also, the share remaining at 8 h in “in vitro [5]” came to 91%; in “in vitro [7]”, 87%. Besides, the values for the fraction remaining at 24 h in the data set “in vitro [5]” and in the data set “in vitro [7]” were 82% and 81%, respectively.
As to `CSCC[C@@H]1NC(=O)[C@H](Cc2ccccc2)NC(=O)CNC(=O)[C@H](CC(C)C)NC(=O)[C@@H](NC(=O)[C@@H](N)CC(=O)O)CSSC[C@@H]2NC(=O)[C@@H]3CSSC[C@@H](C(=O)N[C@@H](CCCCN)C(=O)N[C@@H](Cc4ccc(O)cc4)C(=O)N[C@H](C(=O)N[C@@H](Cc4ccccc4)C(N)=O)C(C)C)NC(=O)[C@H](Cc4c[nH]c5ccccc45)NC(=O)[C@H](CCCCN)NC(=O)[C@H](Cc4c[nH]cn4)NC(=O)[C@H]([C@@H](C)O)NC(=O)[C@H](CCCNC(=N)N)NC(=O)[C@H](CO)NC(=O)[C@H](CSSC[C@H](NC(=O)[C@H](CCCCN)NC(=O)[C@H](CCCNC(=N)N)NC1=O)C(=O)N[C@@H](Cc1cccc4ccccc14)C(=O)N1CCC[C@H]1C(=O)N[C@@H](CC(=O)O)C(=O)N[C@@H](CC(N)=O)C(=O)N[C@@H](CC(=O)O)C(=O)N[C@@H](CCCCN)C(=O)N3)NC(=O)[C@H](C(C)C)NC(=O)[C@H](CC(C)C)NC(=O)[C@H](CC(N)=O)NC(=O)[C@@H]1CCCN1C(=O)[C@H](CCCNC(=N)N)NC2=O` [SEQ ID NO: 78, [1-Nal10]GpTx-1(1-34)], the figures for the IC50 on hNav1.7 [10], at hNav1.3 [1] (Use) and on hNav1.5 (IWQ Use Nav1.5 (μM)) were 150 nM, 210 nM and 10 µM, respectively. Moreover, the “% peptide remaining” value in data set [4] (setting [12]) came out at 100%; in [4] (incubation time 2 hr), 98%; in data set [4] (incubation time 4 hr), 92%; in data set [4] (incubation time 8 hr), 92%; in [4] (incubation time 24 hr) it was 88%; in data set [9] (setting [12]), 100%. Further, the “% peptide remaining” value in [9] (incubation time 2 hr) is reported as 99%; in [9] (incubation time 4 hr), 93%; in data set [9] (incubation time 8 hr), 97%; in data set [9] (incubation time 24 hr), 82%.
On hNav1.7 [8], `CC[C@H](C)[C@@H]1NC(=O)[C@@H]2CSSC[C@@H]3NC(=O)[C@H](C(C)C)NC(=O)[C@H](CC(C)C)NC(=O)[C@H](CC(N)=O)NC(=O)[C@@H]4CCCN4C(=O)[C@H](CCCNC(=N)N)NC(=O)[C@H](CSSC[C@H](NC(=O)[C@@H](N)CC(=O)O)C(=O)N[C@@H](CC(C)C)C(=O)NCC(=O)N[C@@H](Cc4ccccc4)C(=O)N[C@@H](CCSC)C(=O)N[C@@H](CCCNC(=N)N)C(=O)N[C@@H](CCCCN)C(=O)N2)NC(=O)[C@H](CSSC[C@@H](C(=O)N[C@@H](CCCCN)C(=O)N[C@@H](Cc2ccc(O)cc2)C(=O)N[C@H](C(=O)N[C@@H](Cc2ccccc2)C(N)=O)C(C)C)NC(=O)[C@H](Cc2c[nH]c4ccccc24)NC(=O)[C@H](CCC(=O)O)NC(=O)[C@H](Cc2cnc[nH]2)NC(=O)[C@H]([C@@H](C)O)NC(=O)[C@H](CCCNC(=N)N)NC(=O)[C@H](CO)NC3=O)NC(=O)[C@H](CCCCN)NC(=O)[C@H](CC(=O)O)NC(=O)[C@H](CC(N)=O)NC(=O)[C@H](CC(=O)O)NC(=O)[C@@H]2CCCN2C1=O` [[Glu28]GpTx-1(1-34)] (H-DCLGFMRKCIPDNDKCCRPNLVCSRTHEWCKYVF-NH2; disulfide 2-17, 9-23, 16-30) showed an IC50 of 26 nM. In addition, the level at time molar at 2 h in the data set “in vivo” turned out to be 1280 ± 403 nM.
Consider `CC[C@H](C)[C@@H]1NC(=O)[C@@H]2CSSC[C@@H]3NC(=O)[C@H](C(C)C)NC(=O)[C@H](CC(C)C)NC(=O)[C@H](CC(N)=O)NC(=O)[C@@H]4CCCN4C(=O)[C@H](CCCNC(=N)N)NC(=O)[C@H](CSSC[C@H](NC(=O)[C@H](CC(=O)O)NC(C)=O)C(=O)N[C@@H](CC(C)C)C(=O)NCC(=O)N[C@@H](Cc4ccccc4)C(=O)N[C@@H](CCSC)C(=O)N[C@@H](CCCNC(=N)N)C(=O)N[C@@H](CCCCN)C(=O)N2)NC(=O)[C@H](CSSC[C@@H](C(=O)N[C@@H](CCCCN)C(=O)N[C@@H](Cc2ccc(O)cc2)C(=O)N[C@H](C(=O)N[C@@H](Cc2ccccc2)C(N)=O)C(C)C)NC(=O)[C@H](Cc2c[nH]c4ccccc24)NC(=O)[C@H](CCCCN)NC(=O)[C@H](Cc2cnc[nH]2)NC(=O)[C@H]([C@@H](C)O)NC(=O)[C@H](CCCNC(=N)N)NC(=O)[C@H](CO)NC3=O)NC(=O)[C@H](CCCCN)NC(=O)[C@H](CC(=O)O)NC(=O)[C@H](CC(N)=O)NC(=O)[C@H](CC(=O)O)NC(=O)[C@@H]2CCCN2C1=O` [SEQ ID NO: 132], for which the IC50 turned out to be 220 nM on hNav1.3 [1] (setting [11]), 12.7 µM against hNav1.5 (IWQ Use Nav1.5) and 84 nM against hNav1.3 [6]. In addition, the “% peptide remaining” value in [4] (setting [12]) and in data set [9] (setting [12]) was 100% throughout. Moreover, the share remaining at 2 h stood at 100% in “in vitro [5]” and 105% in the data set “in vitro [7]”. The share remaining at 4 h turned out to be 104% in “in vitro [5]” and 103% in the data set “in vitro [7]”. For the same compound, the amount remaining at 8 h in “in vitro [5]” amounted to 101%; in “in vitro [7]”, 103%. Further, the fraction remaining at 24 h in “in vitro [5]” worked out at 97%; in “in vitro [7]” it was 106%.
